Source: paper PMC4552634, “A New Set of Chemical Starting Points with Plasmodium falciparum Transmission-Blocking Potential for Antimalarial Drug Discovery” (PLoS ONE, 2015)
Where two headings read alike, the source gives them in different places.

Legend:
[1] = system: P. falciparum stage V gametocytes; assay: Gametocytocidal ATP bioluminescence assay (single point 5 μM and 1 μM, dose-response); type: cell-based, Plasmodium falciparum; conditions: for Ratio IC50 HepG2/IC50 P. falciparum: IC50 HepG2 divided by IC50 P. falciparum gametocytes; for IC90: ATP assay, Fig 7, read-out: IC90 against gametocytes
Experimental: Purified stage IV-V gametocytes were obtained as previously described [10]. Single point ATP bioluminescence assay and dose–response of positive hits was determined in accordance with the previously published protocol [10].

[2] = system: luciferase reaction (BacTiter-Glo); assay: Interference assay (inhibition of the BacTiter-Glo luciferase reaction); type: biochemical; set-up: concentration or dose not given beside the values; conditions: ATP interference assay
Experimental: To discard possible false-positive results, we performed an interference assay in parallel. […] […]. The ATP solution was made by dissolving ATP powder (ATP standard from the ATPlite 1 step assay kit, reference 6016731, Perkin Elmer) in culture medium. The positive control used was the Luciferase Inhibitor I Calbiochem (Merck, 119113) at 100 μM.

[3] = Cytotoxicity in HepG2 cells (intracellular ATP, ATPlite, 48 h); type: cell-based, human; conditions: human, HepG2 cells
HepG2 cells = assay: as above; type: cell-based, human; conditions: for Ratio IC50 HepG2/IC50 P. falciparum: IC50 HepG2 divided by IC50 P. falciparum gametocytes
[4] = system: mature P. falciparum NF54 gametocytes (male gametocyte exflagellation); assay: Exflagellation assay; type: cell-based, Plasmodium falciparum; conditions: for % Exflagellation inh. at the IC90: 48 h, concentration = IC90, Fig 7; for % Inhibition exflagellation: 48 h post-treatment at the IC90 of the ATP assay, normalized to control, Fig 6
Experimental: The exflagellation assay was performed as described by Delves et al., with some modifications. Briefly, 200 μL samples of mature P. falciparum NF54 gametocytes culture in the presence of the corresponding test compound were incubated at 37°C for 48 h in an atmosphere of 5% CO2, 5% O2, 90% N2 in 1.5 mL microfuge tubes. After the incubation period, cells were settled down and medium was carefully removed. The cell pellets were resuspended in 15 μl of complete ookinete medium (RPMI medium with 25 mM HEPES, 50 mg/L hypoxanthine, 2 g/L sodium bicarbonate, 100 μM xanthurenic acid, 20% human serum) pre-warmed at 37°C. Once parasites were resuspended in ookinete medium, they were introduced in a chamber of a FastRead disposable hemocytometer slide and placed on a horizontal surface at room temperature (21°C), to allow cells to homogeneously settle, forming a tight monolayer.

[5] = system: P. falciparum NF54 gametocytes fed to An. stephensi mosquitoes; assay: Standard membrane feeding assay (SMFA); type: in vivo, Plasmodium falciparum; conditions: for Infection Prevalence (%): An. stephensi fed gametocytes treated 48 h at the IC90, Fig 6, one of two independent experiments, control 94%; for % Prevalence of infection / % Reduction oocysts SMFA / Block in Transmission (%) / Reduction in Oocyst (%): gametocytes treated 48 h at the IC90; for % Prevalence of infection / % Reduction oocysts SMFA: Fig 7; for Block in Transmission (%) / Reduction in Oocyst (%): normalized to DMSO control, Fig 6; for Reduction in Oocyst (%): mean oocyst intensity
Experimental: Gametocyte cultures of the P. falciparum NF54 strain, kindly provided by Robert Sinden (Imperial College London), were induced at 0.5% asexual parasitemia and 4% hematocrit (RBCs from the Spanish Red Cross) at 40 mL final volume in T75 flasks. Gametocyte production media comprised RPMI 1640 (Sigma, #R5886), 30 mM bicarbonate (Sigma-Aldrich, #S5761) and 5 mM hypoxanthine (Gibco, #11067–030). Media were made complete with 5% human serum A^+ (Interstate Blood Bank, USA) and 5% AlbuMAX II (Gibco, #11021–037). Cultures were maintained in a gassed incubator at 37°C with 5% CO2, 5% O2, 90% N2 for 14–17 days post-induction, with daily medium replacement without the addition of fresh RBCs. Percentages of mature gametocytes were assessed by microscopic counts (Leica, DM2000) of Giemsa-stained thin blood smears, and functional microgametocytes were assessed for exflagellation activity at room temperature. To test exflagellation, mature gametocyte cultures were centrifuged at 1800 rpm for one minute. The infected RBC pellet was gently mixed with an equal volume of pre-warmed human serum and introduced onto a slide with a coverslip, followed by incubation at room temperature for 10–15 min. The average exflagellation centers per field at 10X magnification was determined by the exflagellation assay described above. Gametocyte counts and exflagellation assays were performed both before and after gametocyte drug treatment (at the time of SMFA).
Two days before gametocyte treatment with compound, spent media was removed and fresh Gametocyte Treatment Medium consisting of RPMI1640 with L-glutamine and 25 mM HEPES (Gibco, #13018–031), 10 mM glucose (Sigma-Aldrich, #G8270), 20 mM bicarbonate (Sigma-Aldrich, #S5761) and 5 mM hypoxanthine (Gibco, #11067) was added. Media were made complete with 10% of human A^+ serum (Interstate Blood Bank). Five ml of mature gametocyte culture at day 15 post-induction was transferred into each well of a pre-warmed 6-well plate. The selected TCAMS compounds were prepared fresh as a stock solution of 10 mM in 100% of DMSO and added to the mature gametocytes at the concentrations described in Fig 7. Gametocytes were exposed to the compound for a total duration of 48 h. At 24 h post-drug exposure, a fixed volume (3 mL) of spent medium was removed and fresh medium was re-added, accompanied by compound replenishment to obtain the required final concentration. Untreated gametocytes with the same final concentration of DMSO (0.1%) as in treated gametocytes were processed in parallel.
On the day of the feed, cultures were centrifuged at 2500 g for 3 min at 37°C, diluted 1:1 with 100% packed cell volume of fresh RBCs, and finally formulated as artificial mosquito blood meals at 50% hematocrit with pre-warmed human serum. All steps were performed at 37°C. Prepared blood meals were fed in duplicate to 4–6 days old female An. stephensi mosquitoes for 30–40 min via Parafilm membrane attached to glass feeders (Fisher Scientific, #12831283) connected to a 37°C circulating water bath. Fed mosquitoes were maintained in an incubator at 27°C and 75% relative humidity with 12 h light/dark cycles. At 7–8 days post-feeding, mosquitoes with fully developed ovaries were dissected for midguts (Leica, M80) and incubated in 0.2% mercurochrome solution in distilled water for 10–15 min. The total number of oocysts in individual midguts was counted using a light microscope (Leica, DM2000) under a 10X objective (100X magnification). Both infection prevalence (percentage of mosquitoes with one or more oocysts) and mean oocyst intensity of infection were defined in each treatment. The percentage block in transmission and the percentage reduction in mean oocyst intensity were calculated after normalizing to the Control DMSO-treated sample.

[6] = system: P. falciparum asexual stages; conditions: cited from earlier work
[7] = system: P. falciparum stage V gametocytes; assay: microbe, parasite or virus in culture; set-up: BacTiter-Glo ATP luminescence viability of stage V gametocytes, 11-point dose-response IC50; conditions: Plasmodium falciparum, 48 h; sheet CSAanalogstable
Experimental: Once purified, gametocytes were counted using a Neubauer chamber, and the density was adjusted to 2.5 x 10^5 gametocytes/mL. Fifty μL of the gametocyte suspension (1.25 x 10^4 gametocytes) were added to each well of the 384-well plate containing the compounds, using a Multidrop combi (Thermo Electron Corporation). Plates were shaken for 5 sec to homogenize and then incubated at 37°C for 48 h in an atmosphere of 5% CO2, 5% O2, 90% N2. The ATP level of each well was determined using the BacTiter-Glo reagent (Promega) according to the recommendations of the manufacturer. The BacTiter-Glo assay generates a ‘glow-type’ luminescent signal produced by the luciferase reaction, which consists of mono-oxygenation of luciferin catalyzed by luciferase in the presence of Mg^2+, ATP and molecular oxygen. The luminescence was measured using a plate reader (Victor V, Perkin Elmer). […] The background value was subtracted from every other value of the assay prior to further calculation. The average of 16 replicates of vehicle control (0.5% or 0.1% DMSO) represents 100% of signal. Related to this value, each test concentration was calculated as percentage of control. […] However, there was no significant correlation between compound IC50 values obtained against gametocytes and the inhibition of growth of P. falciparum asexual forms as previously determined for TCAMS [6] […]

[8] = Plasmodium falciparum, P. falciparum gametocytes, average, read-out: IC50 Pf Gametocytes average, IC50 (µM) average
[9] = HepG2, 48 h exposure, intracellular ATP, read-out: IC50 (μM) Cytotoxicity HepG2
[10] = IC50 per ratio column head, unit inferred, read-out: Cytotoxicity in HepG2
[11] = P. falciparum asexual stages, TCAMS data, read-out: IC50 (µM) Pf asexual stages
[12] = asexual stages, TCAMS data, read-out: IC50 asexual
[13] = Plasmodium falciparum, sexual stages (gametocytes), dose-response, read-out: IC50 sexual

SMILES | Ratio IC50 HepG2/IC50 P. falciparum [1] | IC90 ([1]; Plasmodium falciparum) | IC50 [1, 8] | % Control luminiscence [2] | IC50 at 48 h [3, 9] | IC50 at 48 h [3, 10] | Ratio IC50 HepG2/IC50 P. falciparum (HepG2 cells) | % Exflagellation inh. at the IC90 [4] | % Inhibition exflagellation [4] | Infection Prevalence (%) [5] | % Prevalence of infection [5] | % Reduction oocysts SMFA [5] | Block in Transmission (%) [5] | Reduction in Oocyst (%) [5] | IC50 [6, 11] | IC50 [6, 12] | IC50 [1, 13] | further results
Cc1[nH]c2ccccc2c1C(=O)C(C)Sc1nnc(-c2ccccc2Br)[nH]1 (stereo not drawn) [TCMDC-125114] | 74 | 2500 nM | 0.67 µM | 99% | > 25 µM | 49.3 µM | 74 | 97% | 97.00% | 2% | 2% | 100% | 98% | 100% | 0.0348 µM | 0.035 µM |  | IC50 ([6]; as previously determined for TCAMS, read-out: IC50 (μM) Pf Asexual stages): 0.03 µM
COc1cccc(NC(=O)[C@H](C(C)C)n2c(=O)[nH]c3ccccc3c2=O)c1 [TCMDC-125133] | >93 | 2500 nM | 0.54 µM | 100% | > 25 µM | > 50 µM | >93 | 88% | 88.00% | 3% | 3% | 100% | 97% | 100% | 0.27 µM | 0.266 µM | 0.538 µM | 
CCC1CN2CCc3cc(OC)c(OC)cc3C2CC1CC1NCCc2cc(OC)c(OC)cc21 (stereo not drawn) [TCMDC-125849] |  | 2000 nM |  |  | 18 µM | 17.7 µM |  | 99.2% |  | 3% | 3% | 100% | 97% | 100% | 0.14 µM | 0.145 µM | 0.117 µM | 
CCC1=C(C[C@H]2NCCc3cc(OC)c(OC)cc32)C[C@H]2c3cc(OC)c(OC)cc3CCN2C1 [TCMDC-131825] | >83 |  |  |  |  |  | >83 |  |  |  |  |  |  |  | 0.31 µM | 0.312 µM |  | IC50 ([1]; P. falciparum gametocytes, average, read-out: IC50 Pf Gametocytes average, IC50 (µM) average): 0.3 µM; IC50 (HepG2 cells; HepG2 cells, IC50 per ratio column head, unit inferred): > 25000 nM; IC50 [7]: 300 nM
N=C(NCCCc1ccccc1)c1cccc(C(=N)NCCCc2ccccc2)n1 [TCMDC-137453] | 41 | 2000 nM | 0.31 µM | 100% | 13 µM | 12.8 µM | 41 | 97.3% |  | 5% | 5% | 100% | 95% | 100% | 1.38 µM | 1.38 µM | 0.313 µM | 
